Assay results reported in patent publication US7888355B2, “Compositions and methods for inhibiting growth and metastasis of melanoma” (Burnham Institute for Medical Research, priority 2007, dated 2011).
Where two headings read alike, the source gives them in different places.

Assays:
[1] = test system: SW1 melanoma cells; assay: Apoptosis by FACS of PI-stained SW1 cells; format: cell-based, mouse; conditions: 48 h
Description: Mitochondrial activity and apoptosis. Cells were exposed to the chemicals for 12-48 hours as indicated in Results. To measure changes in mitochondrial activity reflective of general cell viability, the ATPLITE ATP detection assay was used according to the manufacturer's recommendations (Perkin Elmer). Apoptosis analysis was performed by flow cytometry of PI-stained cells. The percentage of cells to the left of the diploid G0/1 peak, characteristic of hypodiploid cells that have partially lost DNA, was calculated as percentage of apoptotic cells (Bhoumik et al., PNAS 101:4222-7, 2004). Analysis of changes in Caspase 8 expression pattern was performed using immunoblot analysis.
The finding that CSL and AIGA reduced cell viability in melanoma was made using the ATPLITE assay, which monitors the degree of mitochondrial ATP release, a marker for mitochondrial activity. To directly assess possible changes in the apoptosis of melanoma cells following their exposure to CSL or AIGA, FACS analysis of the melanoma cells was performed 48 h after treatment. […] Treatment with 1 μM AIGA caused 15% apoptosis in these melanoma cultures (FIG. 4a). Treatment with CSL caused 13% apoptosis at a dose of 0.5 μM and 35% apoptosis at a dose of 1 μM (FIG. 4b). Consistent with these finding is the activation of caspases 8, a classic marker for apoptosis, which was observed upon addition of these compounds, by Western blot analysis. SW1 cells were treated with 0.5 μM AIGA, 0.5 μM CSL, 1.0 μM CSL for 24 hours. Staurosporin was used as a positive control. Immunoblot analysis using caspase 8 antibody monitored full length and cleaved forms (active) of caspase 8. β-actin was used as a loading control.

[2] = test system: NF-κB transcriptional activity; assay: 2-NFκ-B-luciferase reporter assay in SW1 cells; format: cell-based, mouse; conditions: 8 h
Description: Constructs and inhibitors. An ATF2 peptide (aa 51-100) was cloned into HA-tagged pcDNA3 vector as previously described (Bhoumik et al., Cancer Res 64:8222-30, 2004). 5×Jun2tk-Luc (marker for ATF2 transcriptional activities), 5×TRE-tk-Luc (marker for AP1/c-Jun transcriptional activities) and 2×NF-B-Luc were previously described (Bhoumik et al., J Clin Invest 110:643-50, 2002). Pharmacological inhibitor of JNK (SP600125) was purchased (EMD biosciences) and added (5 μM) to cultured cells as indicated in Results.
Transcriptional analysis. Transient transfection of different reporter constructs into melanoma cells was performed using LIPOFECTAMINE PLUS transfection reagent (Invitrogen). Luciferase activity was determined as previously described (Bhoumik et al., PNAS 101:4222-7, 2004).
To assess whether CSL may affect the transcriptional activities of genes other than ATF2 and c-Jun, possible changes in transcriptional activities of NF-κB were monitored. Transcriptional activation of NFκ-B was assessed using the 2-NFκ-B-luciferase assay. Briefly, SW1 cells were transfected with the 2-NFκ-B-luciferase plasmid and 24 h later, cells were treated with the indicated concentrations of AIGA or CSL for 8 h before proteins were prepared and level of luciferase activity was measured. ATF250-100 peptide was used as a positive control. Data shown represent results from 2 experiments. […]

[3] = test system: normal human breast cultures MCF10; assay: Toxicity on normal human breast cultures; format: cell-based
[4] = test system: JNK phosphorylation on residues 183/185; assay: Western blot for JNK phosphorylation in SW1 cells; format: cell-based, mouse; conditions: 0.5, 1.0, 2.0 μM
Description: Immunoblot analysis. Proteins prepared from cells at the indicated time points using RIPA buffer and 75 μg were separated on SDS-PAGE followed by immunoblot analysis using the antibodies indicated. Antibodies used were as follows: anti-JNK (Santa Cruz), phospho-JNK (Promega Corp.; Madison, Wis.), phospho c-Jun (Cell Signaling Technology, Inc.; Danvers, Mass.), c-Jun (Santa Cruz Biotechnology, Inc.; Santa Cruz, Calif.) and Caspase 8 (BD Biosciences; San Jose, Calif.).
Thus, the two compounds were evaluated to determine if they require JNK activity for their effects on melanoma cells. To this end, the ability of AIGA or CSL to affect the viability of melanoma cells in the presence of a JNK inhibitor was tested. SW1 cells, with or without a 30-minute pretreatment with the JNK inhibitor SP600125 (10 μM), were contacted with AIGA or CSL at the indicated concentrations for 20 h. ATP levels were used to measure the cell viability using the ATPLITE kit. […] To assess whether these compounds affect JNK activity, changes in JNK phosphorylation on residues 183/185, which are required for its kinase activity, were monitored. […] Total level of JNK was analyzed in parallel. […]

[5] = test system: Mdm2 and p53; assay: Stability of short-lived proteins; format: cell-based; conditions: 0.3-1 μM, data not shown
Description: CSL was also shown to inhibit NF-κB activation through the inhibition of IKB kinase and TAK1 activities. […] Thus, it is likely that the ability of CSL to attenuate NF-κB activity would result in increased JNK activity, which is consistent the findings herein. It is the increase in JNK activity, and consequently of its substrate c-Jun, in concert with inhibition of ATF2 activities that brings about the potent cytotoxic effects of both CSL and AIGA on melanoma cells, similar to what was previously shown for the ATF2 peptides.

| SMILES | % apoptosis of SW1 melanoma cells ([1]; 1 μM) [%] | NF-κB transcriptional activity [2] | toxic effect on normal human breast cultures MCF10 [3] | phosphorylation of JNK on residues 183/185 [4] | stability of short-lived proteins, including Mdm2 and p53 [5] | % apoptosis of SW1 melanoma cells ([1]; 0.5 μM) [%] | toxic effect on normal human breast cultures MCF10 ([3]; data not shown) |
| --- | --- | --- | --- | --- | --- | --- | --- |
| CC(=O)Oc1c2c(c(CC=C(C)C)c3c1C(=O)C1=C[C@@H]4CC5C(C)(C)OC(C/C=C(\C)C(=O)O)(C4=O)[C@@]15O3)OC(C)(CCC=C(C)C)C=C2 (stereo partly shown) [AIGA, Acetyl isogambogic acid] | 15 | dose-dependent inhibition | Neither CSL nor AIGA elicited toxic effect | induced phosphorylation of JNK | – | – | – |
| CC1=C(O)C(=O)C=C2C1=CC=C1[C@@]2(C)CC[C@@]2(C)[C@@H]3C[C@](C)(C(=O)O)CC[C@]3(C)CC[C@]12C [Celastrol] | 35 | dose-dependent inhibition | – | induced phosphorylation of JNK | did not affect | 13 | Neither CSL nor AIGA elicited toxic effect |
